Test results published in ChEMBL document CHEMBL3085706, “Scorpiand-like azamacrocycles prevent the chronic establishment of Trypanosoma cruzi in a murine model” (Eur J Med Chem, 2013).
The source made the active and inactive calls. No cut-off for these calls is given here.

Assays:
[1] = Selectivity index, ratio of IC50 for African green monkey Vero cells to IC50 for extracellular epimastigote form of Trypanosoma cruzi IRHOD/CO/2008/SN3; type: toxicity, cell-based; details: read-out: Ratio IC50
[2] = Selectivity index, ratio of IC50 for African green monkey Vero cells to IC50 for intracellular amastigote form of Trypanosoma cruzi IRHOD/CO/2008/SN3; type: toxicity, cell-based; details: read-out: Ratio IC50
Trypanosoma cruzi [3] = experiment: Trypanocidal activity against extracellular trypomastigote form of Trypanosoma cruzi IRHOD/CO/2008/SN3 after 24 hrs by Neubauer hemocytometric analysis; type: functional, organism-based; details: IRHOD/CO/2008/SN3, 24 h
Trypanosoma cruzi [4] = experiment: Trypanocidal activity against extracellular epimastigote form of Trypanosoma cruzi IRHOD/CO/2008/SN3 after 72 hrs by Neubauer hemocytometric analysis; type: functional, organism-based; details: IRHOD/CO/2008/SN3, 72 h
[5] = Selectivity index, ratio of IC50 for African green monkey Vero cells to IC50 for extracellular trypomastigote form of Trypanosoma cruzi IRHOD/CO/2008/SN3; type: toxicity, cell-based; details: read-out: Ratio IC50
Vero = experiment: Cytotoxicity against African green monkey Vero cells after 72 hrs by flow cytometric analysis; type: cell-based; details: Chlorocebus sabaeus
Trypanosoma cruzi [6] = experiment: Trypanocidal activity against intracellular amastigote form of Trypanosoma cruzi IRHOD/CO/2008/SN3 infected in African green monkey Vero cells after 72 hrs by Giemsa staining assay; type: functional, organism-based; details: IRHOD/CO/2008/SN3, Vero
Trypanosoma cruzi [7] = experiment: Trypanocidal activity against epimastigote form of Trypanosoma cruzi IRHOD/CO/2008/SN3 assessed as cytoplasmic vacuolization and disintegration at IC25 after 96 hrs by transmission electron microscopic analysis; type: functional, organism-based
Trypanosoma cruzi [8] = experiment: Trypanocidal activity against epimastigote form of Trypanosoma cruzi IRHOD/CO/2008/SN3 assessed as lysis of epimastigotes at IC25 after 96 hrs by transmission electron microscopic analysis; type: functional, organism-based
Trypanosoma cruzi [9] = experiment: Trypanocidal activity against epimastigote form of Trypanosoma cruzi IRHOD/CO/2008/SN3 assessed as inhibition of acetate excretion at IC25 after 96 hrs by NMR spectra analysis; type: functional, organism-based
[10] = Inhibition of Fe-SOD in Trypanosoma cruzi IRHOD/CO/2008/SN3 epimastigotes assessed as reduction of nitrobluetetrazolium measured for 10 mins by spectrophotometric analysis
Trypanosoma cruzi [11] = experiment: Trypanocidal activity against trypomastigote form of Trypanosoma cruzi IRHOD/CO/2008/SN3 infected in African green monkey Vero cells assessed as inhibition of trypomastigotes released in culture medium at IC25 relative to control; type: functional
Trypanosoma cruzi [12] = experiment: (§1) Trypanocidal activity against amastigote form of Trypanosoma cruzi IRHOD/CO/2008/SN3 infected in African green monkey Vero cells assessed as inhibition of amastigotes load per cell at IC25 preincubated for 12 hrs followed by compound washout measured after 10 days by Giemsa staining-based microscopic analysis relative to control; type: functional
Trypanosoma cruzi [13] = experiment: Trypanocidal activity against epimastigote form of Trypanosoma cruzi IRHOD/CO/2008/SN3 assessed as inhibition of alanine excretion at IC25 after 96 hrs by NMR spectra analysis; type: functional, organism-based
Trypanosoma cruzi [14] = experiment: Trypanocidal activity against epimastigote form of Trypanosoma cruzi IRHOD/CO/2008/SN3 assessed as excessive dilation of kinetoplast at IC25 after 96 hrs by transmission electron microscopic analysis; type: functional, organism-based
Trypanosoma cruzi [15] = experiment: Trypanocidal activity against epimastigote form of Trypanosoma cruzi IRHOD/CO/2008/SN3 assessed as inhibition of lactate excretion at IC25 after 96 hrs by NMR spectra analysis; type: functional, organism-based
[16] = Inhibition of Escherichia coli Mn-SOD assessed as reduction of nitrobluetetrazolium measured for 10 mins by spectrophotometric analysis
Trypanosoma cruzi [17] = experiment: Trypanocidal activity against epimastigote form of Trypanosoma cruzi IRHOD/CO/2008/SN3 assessed as induction of ethanol production at IC25 after 96 hrs by NMR spectra analysis; type: functional, organism-based
Trypanosoma cruzi [18] = experiment: Trypanocidal activity against bloodstream trypomastigote form of Trypanosoma cruzi IRHOD/CO/2008/SN3 infected in BALB/c mouse assessed as reduction of anti-parasitic Ig-G level in serum at 5 mg/kg/day, ip administered for 5 days measured over 40 to 120 days post-infection by ELISA; type: functional, organism-based
Trypanosoma cruzi [19] = experiment: as §1, with “parasite infection rate” for “amastigotes load per cell”; type: functional
Trypanosoma cruzi [20] = experiment: Trypanocidal activity against bloodstream trypomastigote form of Trypanosoma cruzi IRHOD/CO/2008/SN3 infected in BALB/c mouse assessed as reduction of circulating parasite burden at 5 mg/kg, ip administered for 5 to 10 days measured 22 to 60 days post-infection by Neubauer hemocytometric analysis; type: functional, organism-based; parameters: dose 5 mg/kg
Trypanosoma cruzi [21] = experiment: Trypanocidal activity against epimastigote form of Trypanosoma cruzi IRHOD/CO/2008/SN3 assessed as loss of plasma membrane integrity at IC25 after 96 hrs by transmission electron microscopic analysis; type: functional, organism-based
Trypanosoma cruzi [22] = experiment: Inhibition of Fe-SOD in Trypanosoma cruzi IRHOD/CO/2008/SN3 epimastigotes assessed as reduction of nitrobluetetrazolium at 12.5 to 25 uM measured for 10 mins by spectrophotometric analysis relative to control
Trypanosoma cruzi [23] = experiment: Trypanocidal activity against epimastigote form of Trypanosoma cruzi IRHOD/CO/2008/SN3 assessed as inhibition of succinate excretion at IC25 after 96 hrs by NMR spectra analysis; type: functional, organism-based
Trypanosoma cruzi [24] = experiment: Trypanocidal activity against epimastigote form of Trypanosoma cruzi IRHOD/CO/2008/SN3 assessed as appearance of swollen mitochondria at IC25 after 96 hrs by transmission electron microscopic analysis; type: functional, organism-based
Trypanosoma cruzi [25] = experiment: Trypanocidal activity against epimastigote form of Trypanosoma cruzi IRHOD/CO/2008/SN3 assessed as disorganization of cytoplasm at IC25 after 96 hrs by transmission electron microscopic analysis; type: functional, organism-based

Row | Structure (SMILES) | selectivity ratio [1] | selectivity ratio [2] | IC50 (Trypanosoma cruzi [3]) | IC50 (Trypanosoma cruzi [4]) | selectivity ratio [5] | IC50 (Vero) | IC50 (Trypanosoma cruzi [6]) | inhibition (Trypanosoma cruzi [9]) | IC50 [10] | inhibition (INH) (Trypanosoma cruzi [11]) | inhibition (INH) (Trypanosoma cruzi [12]) | inhibition (Trypanosoma cruzi [13]) | inhibition (Trypanosoma cruzi [15]) | IC50 [16] | Activity (Trypanosoma cruzi [17]) | Activity (Trypanosoma cruzi [18]) | inhibition (INH) (Trypanosoma cruzi [19]) | Activity (Trypanosoma cruzi [20]) | inhibition (Trypanosoma cruzi [22]) | inhibition (Trypanosoma cruzi [23]) | further results
1 | c1cc2nc(c1)CNCCN(CCNCc1cccc3ccccc13)CCNC2 | 31.2 | 20.2 | 19.5 µM | 10 µM | 16.7 | 325 µM | 16.1 µM |  |  |  |  |  |  |  |  |  |  |  |  |  | 
2 | Br.NCCN1CCNCc2cccc(n2)CNCC1 | 41.4 | 34.5 | 16.3 µM | 6.5 µM | 16.5 | 270 µM | 7.8 µM | Active | 12.5 µM | 58% | 46% | Active | Active | 111 µM | Active | Active | 73% | Active | 100% | Active | Activity (Trypanosoma cruzi [7]): Active; Activity (Trypanosoma cruzi [8]): Active; Activity (Trypanosoma cruzi [14]): Active; Activity (Trypanosoma cruzi [21]): Active
3 | Cl.c1ccc(CNCCN2CCNCc3cccc(n3)CNCC2)nc1 | 42.2 | 36.4 | 18 µM | 9 µM | 20.3 | 366 µM | 10 µM | Active | 8.2 µM | 82% | 60% | Active | Active | 62.5 µM | Active | Active | 77% | Active | 100% | Active | Activity (Trypanosoma cruzi [24]): Active; Activity (Trypanosoma cruzi [25]): Active
